According to PubChem BioAssay AID1963853 (Molecular Pharmacology Branch, DTP, NCI, 2024):

Tested on: 266295-075-R-J1-PDC spheroid viability
Test: Anticancer human tumor 266295-075-R-J1-PDC patient-derived head and neck squamous carcinoma cell line growth inhibition [POLQ]
Conditions: spheroids with HUVEC and MSC; for IC50: curve of first compound; for viability, T/C: stronger effect = lower value
In short: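 Patient-derived tumour cells were co-cultured with HUVEC and mesenchymal stem cells as multicellular spheroids at 37 °C. They were treated with POLQ inhibitors (novobiocin, ART-558, RP6685) alone or combined with other agents. Top concentrations were at or near clinical Cmax (otherwise 10 microM; SN-38 at 1 microM), decreasing in half-log steps.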

[1] = second compound 0.0316 µM, first compound 0.0316 µM
[2] = second compound 0.0316 µM, first compound 0.1 µM
[3] = second compound 0.0316 µM, first compound 0.316 µM
[4] = second compound 0.0316 µM, first compound 1 µM
[5] = second compound 0.0316 µM, first compound 3.16 µM
[6] = second compound 0.0316 µM, first compound 10 µM
[7] = second compound 0.1 µM, first compound 0.0316 µM
[8] = second compound 0.1 µM, first compound 0.1 µM
[9] = second compound 0.1 µM, first compound 0.316 µM
[10] = second compound 0.1 µM, first compound 1 µM
[11] = second compound 0.1 µM, first compound 3.16 µM
[12] = second compound 0.1 µM, first compound 10 µM
[13] = second compound 0.316 µM, first compound 0.0316 µM
[14] = second compound 0.316 µM, first compound 0.1 µM
[15] = second compound 0.316 µM, first compound 0.316 µM
[16] = second compound 0.316 µM, first compound 1 µM
[17] = second compound 0.316 µM, first compound 3.16 µM
[18] = second compound 0.316 µM, first compound 10 µM
[19] = second compound 1 µM, first compound 0.0316 µM
[20] = second compound 1 µM, first compound 0.1 µM
[21] = second compound 1 µM, first compound 0.316 µM
[22] = second compound 1 µM, first compound 1 µM
[23] = second compound 1 µM, first compound 3.16 µM
[24] = second compound 1 µM, first compound 10 µM
[25] = second compound 3.16 µM, first compound 0.0316 µM
[26] = second compound 3.16 µM, first compound 0.1 µM
[27] = second compound 3.16 µM, first compound 0.316 µM
[28] = second compound 3.16 µM, first compound 1 µM
[29] = second compound 3.16 µM, first compound 3.16 µM
[30] = second compound 3.16 µM, first compound 10 µM
[31] = second compound 10 µM, first compound 0.0316 µM
[32] = second compound 10 µM, first compound 0.1 µM
[33] = second compound 10 µM, first compound 0.316 µM
[34] = second compound 10 µM, first compound 1 µM
[35] = second compound 10 µM, first compound 3.16 µM
[36] = second compound 10 µM, first compound 10 µM
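Also: spheroids exposed to compounds for seven days before readout.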

With `COc1cc2cc(C(=O)CCC(=O)O)sc2cc1OC` + COC1C(OC(N)=O)C(O)C(Oc2ccc3c(O)c(NC(=O)c4ccc(O)c(CC=C(C)C)c4)c(=O)oc3c2C)OC1(C)C the IC50 (second compound 0.0316 µM) was greater than 10 µM, the IC50 (second compound 0.1 µM) was greater than 10 µM and the IC50 (second compound 0.316 µM) was greater than 10 µM. For the same compound, the IC50 (second compound 1 µM) was greater than 10 µM, the IC50 (second compound 3.16 µM) was greater than 10 µM and the IC50 (second compound 10 µM) was greater than 10 µM. The viability, T/C [1] was 99.4%, the viability, T/C [2] was 95.9% and the viability, T/C [3] was 114%. The viability, T/C [4] was 101%, the viability, T/C [5] was 95.4% and the viability, T/C [6] was 82.4%. The viability, T/C [7] was 69.1%, the viability, T/C [8] was 90.1% and the viability, T/C [9] was 96.8%. It also gave a viability, T/C [10] of 120%, a viability, T/C [11] of 93.8% and a viability, T/C [12] of 93.3%. The viability, T/C [13] was 97.7%, the viability, T/C [14] was 91.6% and the viability, T/C [15] was 92.4%. For the same compound, the viability, T/C [16] was 99.2%, the viability, T/C [17] was 91.5% and the viability, T/C [18] was 87.6%. For the same compound, the viability, T/C [19] was 100%, the viability, T/C [20] was 96.4% and the viability, T/C [21] was 97.8%. For the same compound, the viability, T/C [22] was 111%, the viability, T/C [23] was 93.2% and the viability, T/C [24] was 93.4%. The viability, T/C [25] was 99.5%, the viability, T/C [26] was 90.2% and the viability, T/C [27] was 95.6%. For the same compound, the viability, T/C [28] was 112%, the viability, T/C [29] was 90.7% and the viability, T/C [30] was 90.1%. It also gave a viability, T/C [31] of 114%, a viability, T/C [32] of 90.6% and a viability, T/C [33] of 96.5%. It also gave a viability, T/C [34] of 98.5%, a viability, T/C [35] of 120% and a viability, T/C [36] of 90.2%.
Work on `O=C(Nc1ccc(O)c(NS(=O)(=O)c2ccc(F)cc2)c1)c1ccc(-c2ccccc2)cc1` + COC1C(OC(N)=O)C(O)C(Oc2ccc3c(O)c(NC(=O)c4ccc(O)c(CC=C(C)C)c4)c(=O)oc3c2C)OC1(C)C yielded an IC50 (second compound 0.0316 µM) greater than 10 µM, an IC50 (second compound 0.1 µM) greater than 10 µM and an IC50 (second compound 0.316 µM) greater than 10 µM. For the same compound, the IC50 (second compound 1 µM) was greater than 10 µM, the IC50 (second compound 3.16 µM) was greater than 10 µM and the IC50 (second compound 10 µM) was greater than 10 µM. The viability, T/C [1] was 93.7%, the viability, T/C [2] was 96.6% and the viability, T/C [3] was 110%. The viability, T/C [4] was 110%, the viability, T/C [5] was 128% and the viability, T/C [6] was 113%. It also gave a viability, T/C [7] of 112%, a viability, T/C [8] of 87.2% and a viability, T/C [9] of 109%. For the same compound, the viability, T/C [10] was 112%, the viability, T/C [11] was 145% and the viability, T/C [12] was 107%. It also gave a viability, T/C [13] of 101%, a viability, T/C [14] of 102% and a viability, T/C [15] of 116%. For the same compound, the viability, T/C [16] was 104%, the viability, T/C [17] was 120% and the viability, T/C [18] was 103%. The viability, T/C [19] was 111%, the viability, T/C [20] was 105% and the viability, T/C [21] was 99.7%. For the same compound, the viability, T/C [22] was 112%, the viability, T/C [23] was 130% and the viability, T/C [24] was 112%. The viability, T/C [25] was 115%, the viability, T/C [26] was 96.6% and the viability, T/C [27] was 101%. It also gave a viability, T/C [28] of 119%, a viability, T/C [29] of 136% and a viability, T/C [30] of 104%. It also gave a viability, T/C [31] of 115%, a viability, T/C [32] of 94.8% and a viability, T/C [33] of 110%. For the same compound, the viability, T/C [34] was 100%, the viability, T/C [35] was 130% and the viability, T/C [36] was 103%.
Work on `COc1cccc2c1C(=O)c1c(O)c3c(c(O)c1C2=O)CC(O)(C(=O)CO)CC3OC1CC(N)C(O)C(C)O1` (stereo unspecified) + Cc1cccc(N(C)C(=O)C2C(O)CCN2c2nc(C)cc(C(F)(F)F)c2C#N)c1 yielded an IC50 (second compound 0.0316 µM) of 1.58 µM, an IC50 (second compound 0.1 µM) of 1.6 µM and an IC50 (second compound 0.316 µM) of 1.35 µM. For the same compound, the IC50 (second compound 1 µM) was 1.35 µM, the IC50 (second compound 3.16 µM) was 1.12 µM and the IC50 (second compound 10 µM) was 0.838 µM. The viability, T/C [1] was 69.3%, the viability, T/C [2] was 74.4% and the viability, T/C [3] was 65.8%. The viability, T/C [4] was 59.6%, the viability, T/C [5] was 36.1% and the viability, T/C [6] was 1.6%. It also gave a viability, T/C [7] of 79.5%, a viability, T/C [8] of 81.9% and a viability, T/C [9] of 61.6%. The viability, T/C [10] was 60.2%, the viability, T/C [11] was 40% and the viability, T/C [12] was 1.95%. The viability, T/C [13] was 84.5%, the viability, T/C [14] was 76% and the viability, T/C [15] was 59.8%. It also gave a viability, T/C [16] of 60.3%, a viability, T/C [17] of 36.1% and a viability, T/C [18] of 2.38%. For the same compound, the viability, T/C [19] was 85.1%, the viability, T/C [20] was 90.8% and the viability, T/C [21] was 79.4%. For the same compound, the viability, T/C [22] was 55.7%, the viability, T/C [23] was 28.3% and the viability, T/C [24] was 1.59%. It also gave a viability, T/C [25] of 81.1%, a viability, T/C [26] of 81.1% and a viability, T/C [27] of 61.6%. It also gave a viability, T/C [28] of 60.3%, a viability, T/C [29] of 19.1% and a viability, T/C [30] of 1.26%. For the same compound, the viability, T/C [31] was 90.9%, the viability, T/C [32] was 84.6% and the viability, T/C [33] was 67.7%. For the same compound, the viability, T/C [34] was 52.3%, the viability, T/C [35] was 9.35% and the viability, T/C [36] was 1.42%.
